Laboratory results from US20230110351A1, “METHODS FOR TREATING PARKINSON'S DISEASE WITH SEPIAPTERIN” (PTC Therapeutics MP, Inc., priority 2020, published 2023).
Read-outs that look alike come from different tables or passages of the source.

Experiments:
[1] = Pharmacokinetic parameters for BH4 after single dose of sepiapterin or BH4 in fasted subjects; assay type: in vivo
Method: Six subjects received sepiapterin in each group and three subjects received BH4 in each group where this treatment was administered.
Values shown are means of plasma concentrations of BH4 following administration at the doses shown.

[2] = CSF levels of sepiapterin, BH4, BH2, HVA and 5-HIAA after administration of sepiapterin; assay type: in vivo
Method: The cerebrospinal fluid (CSF) of selected subjects was collected via lumbar puncture on Day1 (before dose) and on Day 7 (i.e., following daily dosing for 7 days) approximately 30 minutes from time of the maximum observed plasma BH4 concentration (Tmax) as determined from the blood analysis. The cerebral spinal fluid (CSF) was analyzed. Descriptive statistics are provided to characterize any changes in neurotransmitter metabolism between the Day 1, and Day 7 sample results. Method: Analyses were conducted in CSF samples of subjects administered 60 mg/kg sepiapterin or placebo. The following analytes were measured: sepiapterin, BH4, BH2, homovanillic acid (HVA), and 5-hydroxyindoleacetic acid (HIAA). Descriptive (n, mean, SD, median, minimum, maximum) statistics for these analytes at Day 1 and Day 7+/−30 minutes from Tmax and change from baseline at Day 7 were determined for each analyte.

[3] = assay type: in vivo
Method: Method: Twelve subjects were given a single dose (10 mg/kg) of sepiapterin under fasting conditions and then 7 days later under fed conditions. Standard definitions of adverse events (AE) were used. All-cause AE were those that occurred at any time; treatment-emergent adverse events (TEAE) were those that occurred at or after the time of administration of study treatment. TEAEs related to study drug were based on the opinion of the investigator. Serious AE were defined as life threatening or caused death, hospitalization or prolongation of existing hospitalization, or were a persistent or significant disability/incapacity or a substantial disruption of the ability to conduct normal life functions, or a congenital anomaly/birth defect.

[4] = Food effect on administration of sepiapterin: plasma sepiapterin and BH4, fasted vs fed; assay type: in vivo; settings: sepiapterin 10 mg/kg oral
Method: Method: Subjects received two oral doses of sepiapterin (10 mg/kg) separated by one week in a fasted and fed state. Subjects were fed a standard high-fat (approximately 50 percent of total caloric content of the meal) and high-calorie (approximately […] calories) meal starting 30 minutes prior to receiving their second oral dose of sepiapterin on Day 8.
Sampling for PK analysis occurred predose on Days 1 and 8 (within 30 minutes before dosing) and 0.5 hr, 1 hr, 2 hr, 4 hr, 8 hr, 12 hr, and 24 hr after the doses on Days 1 and 8. The blood concentrations of sepiapterin and BH4 were analyzed by MNG Labs.

[5] = Pharmacokinetic analysis of multiple doses of sepiapterin (once daily, 7 days, fed subjects); assay type: in vivo
Description: Methods: Three cohorts of eight fed subjects each were randomized to receive once-daily sepiapterin or placebo for 7 days in a 6:2 ratio. A sentinel dose strategy was also used for administration of the highest sepiapterin dose.

[6] = 60 mg/kg sepiapterin arm, Day 1 (before dose)
[7] = 60 mg/kg sepiapterin, Day 7, +/-30 minutes from BH4 Tmax
[8] = 60 mg/kg sepiapterin, Day 7, same subject
[9] = Day 1 pre-dose, one subject with low baseline
[10] = human, plasma, po, 5 mg/kg, sepiapterin 5 mg/kg once daily, Day 1
[11] = human, plasma, po, 5 mg/kg, sepiapterin 5 mg/kg once daily, Day 7
[12] = human, plasma, po, 20 mg/kg, sepiapterin 20 mg/kg once daily, Day 1
[13] = human, plasma, po, 20 mg/kg, sepiapterin 20 mg/kg once daily, Day 7
[14] = human, plasma, po, 60 mg/kg, sepiapterin 60 mg/kg once daily, Day 1
[15] = human, plasma, po, 60 mg/kg, sepiapterin 60 mg/kg once daily, Day 7

## C[C@H](O)C(=O)C1=Nc2c(nc(N)[nH]c2=O)NC1 [sepiapterin]
[1]
  AUC0-24 and AUC0-inf of BH4, subjects administered sepiapterin compared to subjects administered BH4: much higher
[2]; [6]
  5-HIAA Mean Concentration in CSF: 14.6 ng/mL
  HVA Mean Concentration in CSF: 32.3 ng/mL
  Sepiapterin Mean Concentration in CSF: 0 ng/mL
[2]; 60 mg/kg sepiapterin, Day 1 or Day 7 +/-30 minutes from BH4 Tmax
  Sepiapterin in the CSF: not detected
[2]; 60 mg/kg sepiapterin, Day 7
  Change in CSF concentration of 5-HIAA relative to Day 1: -1.142 ng/mL
[2]; [7]
  5-HIAA Mean Concentration in CSF: 13.4 ng/mL
  HVA Mean Concentration in CSF: 33.7 ng/mL
  Sepiapterin Mean Concentration in CSF: 0 ng/mL
[2]; 60 mg/kg sepiapterin, Day 7, increase
  Change in CSF concentration of HVA relative to Day 1: 1.378 ng/mL
[2]; [8]
  CSF 5-HIAA concentration, one subject: 9.53 ng/mL
  CSF HVA concentration, one subject: 29.93 ng/mL
[2]; [9]
  CSF 5-HIAA concentration, one subject: 3.69 ng/mL
  CSF HVA concentration, one subject: 10.02 ng/mL
[3]; human, in vivo, 10 mg/kg
  TEAE: 4
  TEAE related to study drug: 1
  ≥1 AE: 5
[3]; single dose 10 mg/kg
  Incidence of adverse events, fed compared to fasted subjects: decreased incidence of adverse events
[4]; human, plasma, fasted, 0 h (predose), read-out: Sepiapterin Concentration in Plasma, Maximum
  concentration at 0 h: 0 nM
[4]; human, plasma, fasted, 0.5 h, read-out: Sepiapterin Concentration in Plasma, Minimum
  concentration at 0.5 h: 0 nM
[4]; human, plasma, fasted, 4 h, read-out: Sepiapterin Concentration in Plasma, Minimum
  concentration at 4 h: 0 nM
[4]; human, plasma, fasted, 8 h, read-out: Sepiapterin Concentration in Plasma, Maximum
  concentration at 8 h: 0 nM
[4]; human, plasma, fasted, 12 h, read-out: Sepiapterin Concentration in Plasma, Maximum
  concentration at 12 h: 0 nM
[4]; human, plasma, fasted, 24 h, read-out: Sepiapterin Concentration in Plasma, Maximum
  concentration at 24 h: 0 nM
[4]; human, plasma, fed, 1 h, read-out: Sepiapterin Concentration in Plasma, Minimum
  concentration at 1 h: 0 nM
[4]; human, plasma, fed, 2 h, read-out: Sepiapterin Concentration in Plasma, Minimum
  concentration at 2 h: 0 nM
[4]
  Cmax of BH4 in the plasma, fed compared to fasted: much higher
  Cmax of sepiapterin in the plasma, fed compared to fasted: much lower
  Geometric mean ratio (fasted/fed, 90% CI) for plasma sepiapterin AUClast: 1.29 (0.84 to 2.00)
  Geometric mean ratio (fasted/fed, 90% CI) for plasma sepiapterin Cmax: 1.57 (1.21 to 2.0)
[4]; fasted, 0 h (predose)
  Sepiapterin Concentration in Plasma, Mean: 0 nM
  Sepiapterin Concentration in Plasma, Median: 0 nM
[4]; fasted, 0 h (predose), read-out: Sepiapterin Concentration in Plasma, Minimum
  concentration at 2 h: 0 nM
[4]; fasted, 8 h
  Sepiapterin Concentration in Plasma, Mean: 0 nM
  Sepiapterin Concentration in Plasma, Median: 0 nM
[4]; fasted, 8 h, read-out: Sepiapterin Concentration in Plasma, Minimum
  concentration at 2 h: 0 nM
[4]; fasted, 12 h
  Sepiapterin Concentration in Plasma, Mean: 0 nM
  Sepiapterin Concentration in Plasma, Median: 0 nM
[4]; fasted, 12 h, read-out: Sepiapterin Concentration in Plasma, Minimum
  concentration at 2 h: 0 nM
[4]; fasted, 24 h
  Sepiapterin Concentration in Plasma, Mean: 0 nM
  Sepiapterin Concentration in Plasma, Median: 0 nM
[4]; fasted, 24 h, read-out: Sepiapterin Concentration in Plasma, Minimum
  concentration at 2 h: 0 nM
[4]; fed, 0 h (predose)
  Sepiapterin Concentration in Plasma, Mean: 0 nM
  Sepiapterin Concentration in Plasma, Median: 0 nM
[4]; fed, 0 h (predose), read-out: Sepiapterin Concentration in Plasma, Maximum
  concentration at 24 h: 0 nM
[4]; fed, 0 h (predose), read-out: Sepiapterin Concentration in Plasma, Minimum
  concentration at 2 h: 0 nM
[4]; fed, 0.5 h
  Sepiapterin Concentration in Plasma, Median: 0 nM
[4]; fed, 0.5 h, read-out: Sepiapterin Concentration in Plasma, Minimum
  concentration at 2 h: 0 nM
[4]; fed, 4 h, read-out: Sepiapterin Concentration in Plasma, Minimum
  concentration at 2 h: 0 nM
[4]; fed, 8 h
  Sepiapterin Concentration in Plasma, Median: 0 nM
[4]; fed, 8 h, read-out: Sepiapterin Concentration in Plasma, Minimum
  concentration at 2 h: 0 nM
[4]; fed, 12 h
  Sepiapterin Concentration in Plasma, Mean: 0 nM
  Sepiapterin Concentration in Plasma, Median: 0 nM
[4]; fed, 12 h, read-out: Sepiapterin Concentration in Plasma, Maximum
  concentration at 24 h: 0 nM
[4]; fed, 12 h, read-out: Sepiapterin Concentration in Plasma, Minimum
  concentration at 2 h: 0 nM
[4]; fed, 24 h
  Sepiapterin Concentration in Plasma, Mean: 0 nM
  Sepiapterin Concentration in Plasma, Median: 0 nM
[4]; fed, 24 h, read-out: Sepiapterin Concentration in Plasma, Maximum
  concentration at 24 h: 0 nM
[4]; fed, 24 h, read-out: Sepiapterin Concentration in Plasma, Minimum
  concentration at 2 h: 0 nM
[5]; [10]
  Cmax: 0.6 ng/mL
  Tmax: 3 h
[5]; human, plasma, po, 5 mg/kg, sepiapterin 5 mg/kg once daily, Day 1, read-out: AUC0-inf of sepiapterin
  AUC(0-inf): 1 ng·h/mL
[5]; [11]
  Cmax: 0.6 ng/mL
  Tmax: 3 h
[5]; human, plasma, po, 5 mg/kg, sepiapterin 5 mg/kg once daily, Day 7, read-out: AUC0-inf of sepiapterin
  AUC(0-inf): 0.7 ng·h/mL
[5]; [12]
  Cmax: 1.2 ng/mL
  Tmax: 2.6 h
[5]; human, plasma, po, 20 mg/kg, sepiapterin 20 mg/kg once daily, Day 1, read-out: AUC0-inf of sepiapterin
  AUC(0-inf): 3.9 ng·h/mL
[5]; [13]
  Cmax: 1.3 ng/mL
  Tmax: 2.7 h
[5]; human, plasma, po, 20 mg/kg, sepiapterin 20 mg/kg once daily, Day 7, read-out: AUC0-inf of sepiapterin
  AUC(0-inf): 4.3 ng·h/mL
[5]; [14]
  Cmax: 2.7 ng/mL
  Tmax: 3.3 h
[5]; human, plasma, po, 60 mg/kg, sepiapterin 60 mg/kg once daily, Day 1, read-out: AUC0-inf of sepiapterin
  AUC(0-inf): 21.2 ng·h/mL
[5]; [15]
  Cmax: 2.8 ng/mL
  Tmax: 3 h
[5]; human, plasma, po, 60 mg/kg, sepiapterin 60 mg/kg once daily, Day 7, read-out: AUC0-inf of sepiapterin
  AUC(0-inf): 16 ng·h/mL
[5]; human, plasma, po, sepiapterin 60 mg/kg once daily, Day 1, read-out: AUC0-24 of sepiapterin
  AUC(0-t): 23 ng·h/mL
[5]; once daily for 7 days
  Drug accumulation (plasma sepiapterin and BH4 after 1 and 7 days of treatment): no drug accumulation
